Source: ChEMBL document CHEMBL5247641, “Discovery of Potent DYRK2 Inhibitors with High Selectivity, Great Solubility, and Excellent Safety Properties for the Treatment of Prostate Cancer” (J Med Chem, 2023)
One block for each molecule: values may come before it. Calls of active or inactive are those of the source. No cut-off for these calls is given here.

Assays:
[1] = target: T1, Dual specificity tyrosine-phosphorylation-regulated kinase 2 (Homo sapiens, UniProt Q92630); experiment: Inhibition of hexa His-tagged DYRK2 (72 to 479 residues) (unknown origin) expressed in Escherichia coli BL21 (DE3) assessed as substrate phosphorylation using 4E-BP1 as substrate in presence of [gamma33-P]ATP incubated for 2 hrs by scintillation counter analysis
T1 sequence (Q92630 whole entry): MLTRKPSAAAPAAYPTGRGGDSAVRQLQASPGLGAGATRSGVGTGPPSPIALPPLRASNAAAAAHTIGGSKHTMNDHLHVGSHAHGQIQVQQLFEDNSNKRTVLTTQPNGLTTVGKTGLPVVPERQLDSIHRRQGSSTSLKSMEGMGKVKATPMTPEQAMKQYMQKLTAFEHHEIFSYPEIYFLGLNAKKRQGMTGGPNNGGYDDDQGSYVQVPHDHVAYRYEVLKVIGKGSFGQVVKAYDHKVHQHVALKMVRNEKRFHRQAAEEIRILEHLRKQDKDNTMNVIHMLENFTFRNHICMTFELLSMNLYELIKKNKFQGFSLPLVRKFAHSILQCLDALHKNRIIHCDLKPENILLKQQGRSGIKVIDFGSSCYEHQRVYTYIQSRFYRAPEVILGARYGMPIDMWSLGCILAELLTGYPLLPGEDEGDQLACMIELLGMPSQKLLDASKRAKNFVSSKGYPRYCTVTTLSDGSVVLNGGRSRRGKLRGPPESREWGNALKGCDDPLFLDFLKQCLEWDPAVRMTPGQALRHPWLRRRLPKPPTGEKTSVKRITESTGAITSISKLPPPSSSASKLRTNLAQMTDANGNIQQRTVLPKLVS

[2] = target: T1, Dual specificity tyrosine-phosphorylation-regulated kinase 2; experiment: Inhibition of human GST-tagged DYRK2 expressed in Escherichia coli BL21 (DE3) using woodtide as substrate in presence of [gamma33-P]ATP incubated for 30 mins by Scintillation counter analysis
DU-145 [3] = experiment: Induction of cell cycle arrest in human DU-145 cells assessed as accumulation of cells at G1 phase at 40 uM incubated for 24 hrs by propidium iodide based flow cytometric analysis (Rvb= 53.46%); type: functional
CWR22R [4] = experiment: Induction of cell cycle arrest in human 22Rv1 cells assessed as accumulation of cells at G2 phase at 40 uM incubated for 24 hrs by propidium iodide based flow cytometric analysis (Rvb=24.21 %); type: functional
CWR22R [5] = experiment: Induction of cell cycle arrest in human 22Rv1 cells assessed as accumulation of cells at S phase at 40 uM incubated for 24 hrs by propidium iodide based flow cytometric analysis (Rvb=20.51 %); type: functional
CWR22R [6] = experiment: Induction of apoptosis in human 22Rv1 cells assessed as apoptotis rate at 40 uM incubated for 24 hrs by Annexin V-FITC and PI staining based flow cytometry (Rvb= 3.08%); type: functional
DU-145 [7] = experiment: Antitumor activity against human DU-145 xenografted in BALB/c nude mouse assessed as tumor growth inhibition at 100 mg/kg,po qd for 21 days; type: functional, organism-based; conditions: time 21.0 day
CWR22R [8] = experiment: Induction of cell cycle arrest in human 22Rv1 cells assessed as accumulation of cells at G1 phase at 40 uM incubated for 24 hrs by propidium iodide based flow cytometric analysis (Rvb= 55.28%); type: functional
DU-145 [9] = experiment: Induction of apoptosis in human DU-145 cells assessed as apoptotis rate at 40 uM incubated for 24 hrs by Annexin V-FITC and PI staining based flow cytometry (Rvb= 4.36%); type: functional
DU-145 [10] = experiment: Induction of cell cycle arrest in human DU-145 cells assessed as accumulation of cells at G2 phase at 40 uM incubated for 24 hrs by propidium iodide based flow cytometric analysis (Rvb= 17.52%); type: functional
DU-145 [11] = experiment: Induction of cell cycle arrest in human DU-145 cells assessed as accumulation of cells at S phase at 40 uM incubated for 24 hrs by propidium iodide based flow cytometric analysis (Rvb= 29.02%); type: functional

SMILES: CC(C)(C)OC(=O)N1CCN(C(=O)c2ccc(Nc3ncc(F)c(-c4ccc5scnc5c4)n3)cn2)CC1
- IC50 [1]: 16 nM

SMILES: CC(C)(C)OC(=O)N1CCN(Cc2ccc(Nc3nccc(-c4ccc5scnc5c4)n3)nc2)CC1
- IC50 [1]: > 10000 nM

SMILES: O=C(c1ccc(Nc2ncc(F)c(-c3ccc4scnc4c3)n2)nc1)N1CCN(C(=O)C2CC2)CC1
- IC50 [1]: 33 nM

SMILES: COc1cc(/C=C/C(=O)CC(=O)/C=C/c2ccc(O)c(OC)c2)ccc1O [CURCUMIN]
- IC50 [2]: 2.5 nM

SMILES: CNC(=O)c1ccc(N2C(=S)N(c3ccc(C#N)c(C(F)(F)F)c3)C(=O)C2(C)C)cc1F [ENZALUTAMIDE]
- Activity (DU-145 [3]): 56.68%
- Activity (CWR22R [4]): 21.43%
- Activity (CWR22R [5]): 15.68%
- Activity (CWR22R [6]): 5.85%
- Activity (DU-145 [7]): Active
- Activity (CWR22R [8]): 62.89%
- Activity (DU-145 [9]): 8.01%
- Activity (DU-145 [10]): 16.78%
- Activity (DU-145 [11]): 26.54%

Other lines, results leading:

- IC50 [1]: > 10000 nM
SMILES: Cc1cnc(Nc2ccc(CN3CCN(C(=O)OC(C)(C)C)CC3)cn2)nc1-c1ccc2scnc2c1

- IC50 [1]: > 10000 nM
SMILES: CC(C)(C)OC(=O)N1CCN(Cc2ccc(Nc3ncc(F)c(-c4ccc5scnc5c4)n3)nc2)CC1

- IC50 [1]: > 10000 nM
SMILES: COc1cnc(Nc2ccc(CN3CCN(C(=O)OC(C)(C)C)CC3)cn2)nc1-c1ccc2scnc2c1
